Results: publication PMC8304634, “Structure–Activity Relationships of the Antimalarial Agent Artemisinin 10. Synthesis and Antimalarial Activity of Enantiomers of rac-5β-Hydroxy-D-Secoartemisinin and Analogs: Implications Regarding the Mechanism of Action” (Molecules, 2021)
In brackets after ≈: the same amount, converted by molar mass. Entries after “also recorded” stand apart in the source; their conditions may differ.

Experiments:
[1] = tested on: P. falciparum Sierra Leone (D-6) clone; assay: In vitro antimalarial pLDH assay, D-6 clone; format: cell-based; conditions: for IC50: Plasmodium falciparum, Erythrocyte, read-out: IC50 (ng/mL) D-6; for IC50 / IC50 (ng/mL) D-6: 72 h, parasitized red blood cells, pLDH readout, NA = Not active
Experimental: (§1) Artemisinin 1 and the analogs rac-2, 2a, 2b, 9–16, diastereomers 19a, 19b, 22 and 29 were tested in vitro in parasitized whole blood against drug-resistant strains of P. falciparum parasite clones D-6 and W-2 at The National Center for Natural Products Research (NCNPR) at The University of Mississippi using the parasite lactate dehydrogenase (pLDH) assay developed by Makler (Table 3). This assay is based on the ability of the pLDH enzyme of P. falciparum to reduce APAD to APADH. This reaction is carried out at a slow rate by human red blood cell LDH.
(§2) The formation of APADH was monitored colorimetrically by the addition of nitroblue tetrazolium which was reduced to a blue formazan product. Two P. falciparum malaria parasite clones, designated as Indochina (W-2) and Sierra Leone (D-6), were used in susceptibility testing. The W-2 clone is chloroquine-resistant and mefloquine-sensitive, while the D-6 clone is chloroquine-sensitive but mefloquine resistant. The relative potency values for these analogs were derived from the IC50 value for artemisinin (1) divided by their IC50 values (Table 3) and then adjusted for molecular weight differences by multiplication of the ratio of the molecular weight of the analog divided by the molecular weight of artemisinin. This approach to reporting activity was based in part on the fact that the analogs were tested on different occasions in which the IC50 for the control, artemisinin, had varied anywhere from 5 to 7 ng/mL based on parasitemia levels and clone.
(§3) Synthesized compounds were tested in vitro against two P. falciparum malaria parasite clones, designated as Indochina (W-2) and Sierra Leone (D-6). The W-2 clone is chloroquine resistant whereas the D-6 clone is a chloroquine-sensitive strain.
(§4) A suspension of red blood cells infected with W-2 or D-6 strain of P. falciparum that contains 2% parasitemia and 2% hematocrit in RPMI 1640 medium supplemented with 10% human serum and 60 µg/mL amikacin was dispensed into the wells of a 96-well flat-bottomed microtiter plate containing 10 µL of serially diluted test samples. The plates were incubated at 37 °C in an environment of 90% N2, 5% O2, and 5% CO2 for 72 h. Next, 100 µL aliquots of the Malstat reagent were added to each well of a new 96-well microtiter plate. The cultures were resuspended from the assay plate by mixing each well up and down several times. A total of 20 µL from each well of the resuspended culture was removed and added to the plate containing the Malstat reagent and the plate was incubated at r.t., for 30 min. Further, to each well, 20 µL of a NBT/PES (1:1) solution (2 and 0.1 mg/mL, respectively) were added. The plate was incubated in the dark for 1 h. The reaction was terminated by the addition of 100 µL of a 5% acetic acid solution. The […] plate was then read at 650 nm. Artemisinin and chloroquine were included in each assay as antimalarial drug controls. The IC50 values were computed from the dose–response curves using XLfit 4.2.

[2] = tested on: P. falciparum Indochina (W-2) clone; assay: In vitro antimalarial pLDH assay, W-2 clone; format: cell-based; conditions: for IC50: Plasmodium falciparum, Erythrocyte, read-out: IC50 (ng/mL) W-2; for IC50 / IC50 (ng/mL) W-2: 72 h, parasitized red blood cells, pLDH readout, NA = Not active
Experimental: as §1, §2, §3, §4

P. falciparum = assay: In vitro antimalarial pLDH assay, clone not distinguished in the statement; format: cell-based; conditions: for in vitro antimalarial activity (in words): W-2 and D-6 strains
Experimental: as §1, §2, §3, §4

[3] = 100 × [IC50 (artemisinin, control value)/IC50 (analog)] MW (analog)/MW(artemisinin)
[4] = as quoted in the Discussion, relative to artemisinin

## C[C@@H]1CC[C@H]2[C@@H](C)C(=O)O[C@@H]3O[C@@]4(C)CC[C@@H]1[C@]32OO4 [Compound 1, Artemisinin]
[1]; [3]
  Relative Activity D-6: 100
[1]
  IC50: 7.05 ng/mL (≈ 0.025 µM)
[2]; [3]
  Relative Activity W-2: 100
[2]
  IC50: 5.08 ng/mL (≈ 0.018 µM)
P. falciparum; Plasmodium falciparum, varied between test occasions, based on parasitemia levels and clone, read-out: IC50 for the control, artemisinin
  IC50: 0.005 to 0.007 µg/mL (≈ 0.0177 to 0.0248 µM)

## COC(C(=O)OC1CC2(C)OCC3(CCCCC13)OO2)(c1ccccc1)C(F)(F)F [Compound 19a, (3R,5R,5aR,9aS)-3-methyloctahydro-1H-3,9a-epidioxybenzo[c]oxepin-5-yl(R)-3,3,3-trifluoro-2-methoxy-2-phenylpropanoate]
[1]; [3]
  Relative Activity D-6: 7.13
[1]
  IC50 (ng/mL) D-6: 150.64 ng/mL (≈ 0.35 µM)
[2]; [3]
  Relative Activity W-2: 2.17
[2]
  IC50 (ng/mL) W-2: 357.24 ng/mL (≈ 0.83 µM)

## CC(=O)OCC1(O)CCCCC1C(C)=O (stereo not shown) [Compound 29, (2-Acetyl-1-hydroxycyclohexyl)methyl acetate]
P. falciparum
  in vitro antimalarial activity (in words): Neither 22 nor 29 possessed in vitro antimalarial activity; also recorded: no antimalarial activity

## C[C@]12C[C@H](O)[C@@H]3CCCC[C@@]3(CO1)OO2 [Compound 2b, (3S,5S,5aS,9aR)-3-methyloctahydro-1H-3,9a-epidioxybenzo[c]oxepin-5-ol]
P. falciparum
  in vitro antimalarial activity (in words): devoid of antimalarial activity
other
  melting point: 107 to 109 °C

## COC(C(=O)OC1CC2(C)OCC3(CCCCC13)OO2)(c1ccccc1)C(F)(F)F [Compound 19b, (3S,5S,5aS,9aR)-3-methyloctahydro-1H-3,9a-epidioxybenzo[c]oxepin-5-yl(R)-3,3,3-trifluoro-2-methoxy-2-phenylpropanoate]
[1]; [3]
  Relative Activity D-6: 0.50
[1]; [4]
  Relative Activity D-6: 0.50%
[1]
  IC50 (ng/mL) D-6: 2169.31 ng/mL (≈ 5.04 µM)
[2]; [3]
  Relative Activity W-2: 0.34
[2]; [4]
  Relative Activity W-2: 0.34%
[2]
  IC50 (ng/mL) W-2: 2255.40 ng/mL (≈ 5.24 µM)

## CCCCC(=O)OC1CC2(C)OCC3(CCCCC13)OO2 (stereo not shown) [Compound 9, 3-Methyloctahydro-1H-3,9a-epidioxybenzo[c]oxepin-5-yl pentanoate]
[1]; [3]
  Relative Activity D-6: 5.00
[1]
  IC50: 149 ng/mL (≈ 0.5 µM)
[2]; [3]
  Relative Activity W-2: 2.60
[2]
  IC50: 209 ng/mL (≈ 0.7 µM)

## CC12CC(=O)C3CCCCC3(CO1)OO2 (stereo not shown) [Compound 15, 3-Methylhexahydro-1H-3,9a-epidioxybenzo[c]oxepin-5(5aH)-one]
[1]; [3]
  Relative Activity D-6: 33.30
[1]
  IC50: 31.8 ng/mL (≈ 0.15 µM)
[1]; [4]
  Relative Activity D-6: 33.30%
[2]; [3]
  Relative Activity W-2: 32.72
[2]
  IC50: 23.3 ng/mL (≈ 0.11 µM)
[2]; [4]
  Relative Activity W-2: 32.72%
P. falciparum
  in vitro antimalarial activity (in words): substantially improved over the corresponding alcohol 2
P. falciparum; fold potency versus rac-2 or 2a
  times more potent than the alcohol rac-2 or 2a: 55–77

## C=C1CC2(C)OCC3(CCCCC13)OO2 (stereo not shown) [Compound 16]
[1]; [3]
  Relative Activity D-6: 3.05
[1]
  IC50: 345 ng/mL (≈ 1.64 µM)
[2]; [3]
  Relative Activity W-2: 2.18
[2]
  IC50: 346 ng/mL (≈ 1.65 µM)

## COc1ccc(C(=O)OC2CC3(C)OCC4(CCCCC24)OO3)cc1 (stereo not shown) [Compound 12, 3-Methyloctahydro-1H-3,9a-epidioxybenzo[c]oxepin-5-yl 4-methoxybenzoate]
[1]; [3]
  Relative Activity D-6: 15.13
[1]
  IC50: 115 ng/mL (≈ 0.33 µM)
[2]; [3]
  Relative Activity W-2: 7.50
[2]
  IC50: 167 ng/mL (≈ 0.48 µM)
other
  melting point: 155 to 157 °C

## CC12CC(O)C3CCCCC3(CO1)OO2 (racemic) [rac-2, 3-Methyloctahydro-1h-3,9a-epidioxybenzo[c]oxepin-5-ol]
[1]
  IC50: 1720 ng/mL (≈ 8.01 µM)
[1]; [4]
  Relative Activity D-6: 0.62%
[2]; [3]
  Relative Activity W-2: 0.43
[2]
  IC50: 1780 ng/mL (≈ 8.3 µM)
[2]; [4]
  Relative Activity W-2: 0.43%
other
  melting point: 109 to 111 °C

## CC(=O)OCC12CCCCC1C(O)CO2 (stereo not shown) [Compound 22, (3-Hydroxyhexahydrobenzofuran-7a(2H)-yl)methyl acetate]
P. falciparum
  in vitro antimalarial activity (in words): Neither 22 nor 29 possessed in vitro antimalarial activity; also recorded: no antimalarial activity
other
  melting point: 123 to 125 °C

## CC12CC(OC(=O)c3ccc(Cl)cc3)C3CCCCC3(CO1)OO2 (stereo not shown) [Compound 14, 3-Methyloctahydro-1H-3,9a-epidioxybenzo[c]oxepin-5-yl 4-chlorobenzoate]
[1]; [3]
  Relative Activity D-6: 12.18
[1]
  IC50: 145 ng/mL (≈ 0.41 µM)
[2]; [3]
  Relative Activity W-2: 10.58
[2]
  IC50: 120 ng/mL (≈ 0.34 µM)
other
  melting point: 110 to 112 °C

## CC12CC(OC(=O)C=Cc3ccccc3)C3CCCCC3(CO1)OO2 (stereo not shown) [Compound 13, 3-Methyloctahydro-1H-3,9a-epidioxybenzo[c]oxepin-5-yl cinnamate]
[1]; [3]
  Relative Activity D-6: 13.14
[1]
  IC50: 131 ng/mL (≈ 0.38 µM)
[2]; [3]
  Relative Activity W-2: 8.37
[2]
  IC50: 148 ng/mL (≈ 0.43 µM)

## CC12CC(OC(=O)c3ccccc3)C3CCCCC3(CO1)OO2 (stereo not shown) [Compound 10, 3-Methyloctahydro-1H-3,9a-epidioxybenzo[c]oxepin-5-yl benzoate]
[1]; [3]
  Relative Activity D-6: 10.40
[1]
  IC50: 153 ng/mL (≈ 0.48 µM)
[2]; [3]
  Relative Activity W-2: 9.50
[2]
  IC50: 121 ng/mL (≈ 0.38 µM)
other
  melting point: 100 to 102 °C

## CC12CC(OC(=O)c3ccc(F)cc3)C3CCCCC3(CO1)OO2 (stereo not shown) [Compound 11, 3-Methyloctahydro-1H-3,9a-epidioxybenzo[c]oxepin-5-yl 4-fluorobenzoate]
[1]; [3]
  Relative Activity D-6: 20.81
[1]
  IC50: 80.7 ng/mL (≈ 0.24 µM)
[1]; [4]
  Relative Activity D-6: 20.81%
[2]; [3]
  Relative Activity W-2: 12.41
[2]
  IC50: 97.5 ng/mL (≈ 0.29 µM)
[2]; [4]
  Relative Activity W-2: 12.41%
other
  melting point: 88 to 90 °C

## C[C@@]12C[C@@H](O)[C@H]3CCCC[C@]3(CO1)OO2 [Compound 2a, (3R,5R,5aR,9aS)-3-methyloctahydro-1H-3,9a-epidioxybenzo[c]oxepin-5-ol]
[1]; [3]
  Relative Activity D-6: 0.43
[1]
  IC50: 1260 ng/mL (≈ 5.86 µM)
[1]; [4]
  Relative Activity D-6: 0.43%
[2]; [3]
  Relative Activity W-2: 0.44
[2]
  IC50: 885 ng/mL (≈ 4.13 µM)
[2]; [4]
  Relative Activity W-2: 0.44%
P. falciparum
  in vitro antimalarial activity (in words): Antimalarial activity resided with only the artemisinin-like enantiomer; also recorded: the only alcohol of the pair with antimalarial activity
other
  melting point: 108 to 110 °C
